Laboratory results: PMC7366380, “Discovery of a Potent and Selective Covalent Inhibitor and Activity-Based Probe for the Deubiquitylating Enzyme UCHL1, with Antifibrotic Activity” (Journal of the American Chemical Society, 2020)
“And” between values parts separate entries of the source, which are not always exact repeats. Equal entries are not always repeated. One block for each compound: values may come before it.

Experiments:
Test in all cases: In-cell proteome-wide competitive ABPP, HEK293: other DUBs and proteins
[1] = target: DUBs and other proteins in HEK293 cells (Homo sapiens, UniProt Q92905); settings: for Log2 reporter intensity values, COPS5: TMT replicates; for Log2 reporter intensity values: COPS5: DMSO substract (FC); for Log2 reporter intensity values: COPS5 / Log2 reporter intensity values: replicates A-C; for Log2 t-test Difference / Log2 reporter intensity values: COPS5
Chain of DUBs and other proteins in HEK293 cells (Homo sapiens, UniProt Q92905) (Q92905 whole entry): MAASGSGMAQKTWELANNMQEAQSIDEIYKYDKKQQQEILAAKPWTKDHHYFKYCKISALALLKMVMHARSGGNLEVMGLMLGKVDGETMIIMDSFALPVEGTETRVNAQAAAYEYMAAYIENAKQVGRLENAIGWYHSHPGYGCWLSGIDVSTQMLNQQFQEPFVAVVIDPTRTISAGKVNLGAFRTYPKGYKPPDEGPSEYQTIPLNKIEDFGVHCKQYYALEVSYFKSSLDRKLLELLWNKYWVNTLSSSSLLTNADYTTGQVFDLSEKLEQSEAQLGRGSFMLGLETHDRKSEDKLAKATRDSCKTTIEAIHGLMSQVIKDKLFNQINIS

[2] = target: DUBs and other proteins in HEK293 cells (Homo sapiens, UniProt Q7L5N1); settings: for Log2 reporter intensity values, COPS6: TMT replicates; for Log2 reporter intensity values: COPS6: DMSO substract (FC); for Log2 reporter intensity values: COPS6 / Log2 reporter intensity values: replicates A-C; for Log2 t-test Difference / Log2 reporter intensity values: COPS6
Chain of DUBs and other proteins in HEK293 cells (Homo sapiens, UniProt Q7L5N1) (Q7L5N1 whole entry): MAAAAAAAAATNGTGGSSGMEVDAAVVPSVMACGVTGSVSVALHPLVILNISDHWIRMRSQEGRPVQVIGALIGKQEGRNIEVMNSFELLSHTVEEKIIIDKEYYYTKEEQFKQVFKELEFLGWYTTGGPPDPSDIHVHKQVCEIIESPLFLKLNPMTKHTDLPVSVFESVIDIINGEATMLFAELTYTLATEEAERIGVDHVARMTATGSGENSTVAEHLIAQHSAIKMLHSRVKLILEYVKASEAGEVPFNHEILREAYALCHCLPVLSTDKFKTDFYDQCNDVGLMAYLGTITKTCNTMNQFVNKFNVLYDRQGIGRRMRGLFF

[3] = target: T1, DUBs and other proteins in HEK293 cells (Homo sapiens, UniProt Q9Y5K5); settings: replicates A-C; for Log2 reporter intensity values: UCHL5: competition with ABP 2, DMSO substract (FC); for Log2 reporter intensity values: UCHL5, DMSO subtracted
T1 sequence (Q9Y5K5 1-329): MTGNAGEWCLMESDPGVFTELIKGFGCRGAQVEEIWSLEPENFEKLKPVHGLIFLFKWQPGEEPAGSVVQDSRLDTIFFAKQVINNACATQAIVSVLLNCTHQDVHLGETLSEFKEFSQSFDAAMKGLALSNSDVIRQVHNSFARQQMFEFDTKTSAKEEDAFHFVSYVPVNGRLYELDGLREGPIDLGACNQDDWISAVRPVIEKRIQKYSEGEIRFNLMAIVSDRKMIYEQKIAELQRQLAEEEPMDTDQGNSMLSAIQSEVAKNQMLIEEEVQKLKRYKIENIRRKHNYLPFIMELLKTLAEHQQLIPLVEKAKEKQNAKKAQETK

[4] = target: T2, DUBs and other proteins in HEK293 cells (Homo sapiens, UniProt Q96K76); settings: replicates A-C; for Log2 reporter intensity values: USP47: DMSO substract (FC); for Log2 reporter intensity values: USP47, DMSO subtracted
T2 sequence (Q96K76 1-1375): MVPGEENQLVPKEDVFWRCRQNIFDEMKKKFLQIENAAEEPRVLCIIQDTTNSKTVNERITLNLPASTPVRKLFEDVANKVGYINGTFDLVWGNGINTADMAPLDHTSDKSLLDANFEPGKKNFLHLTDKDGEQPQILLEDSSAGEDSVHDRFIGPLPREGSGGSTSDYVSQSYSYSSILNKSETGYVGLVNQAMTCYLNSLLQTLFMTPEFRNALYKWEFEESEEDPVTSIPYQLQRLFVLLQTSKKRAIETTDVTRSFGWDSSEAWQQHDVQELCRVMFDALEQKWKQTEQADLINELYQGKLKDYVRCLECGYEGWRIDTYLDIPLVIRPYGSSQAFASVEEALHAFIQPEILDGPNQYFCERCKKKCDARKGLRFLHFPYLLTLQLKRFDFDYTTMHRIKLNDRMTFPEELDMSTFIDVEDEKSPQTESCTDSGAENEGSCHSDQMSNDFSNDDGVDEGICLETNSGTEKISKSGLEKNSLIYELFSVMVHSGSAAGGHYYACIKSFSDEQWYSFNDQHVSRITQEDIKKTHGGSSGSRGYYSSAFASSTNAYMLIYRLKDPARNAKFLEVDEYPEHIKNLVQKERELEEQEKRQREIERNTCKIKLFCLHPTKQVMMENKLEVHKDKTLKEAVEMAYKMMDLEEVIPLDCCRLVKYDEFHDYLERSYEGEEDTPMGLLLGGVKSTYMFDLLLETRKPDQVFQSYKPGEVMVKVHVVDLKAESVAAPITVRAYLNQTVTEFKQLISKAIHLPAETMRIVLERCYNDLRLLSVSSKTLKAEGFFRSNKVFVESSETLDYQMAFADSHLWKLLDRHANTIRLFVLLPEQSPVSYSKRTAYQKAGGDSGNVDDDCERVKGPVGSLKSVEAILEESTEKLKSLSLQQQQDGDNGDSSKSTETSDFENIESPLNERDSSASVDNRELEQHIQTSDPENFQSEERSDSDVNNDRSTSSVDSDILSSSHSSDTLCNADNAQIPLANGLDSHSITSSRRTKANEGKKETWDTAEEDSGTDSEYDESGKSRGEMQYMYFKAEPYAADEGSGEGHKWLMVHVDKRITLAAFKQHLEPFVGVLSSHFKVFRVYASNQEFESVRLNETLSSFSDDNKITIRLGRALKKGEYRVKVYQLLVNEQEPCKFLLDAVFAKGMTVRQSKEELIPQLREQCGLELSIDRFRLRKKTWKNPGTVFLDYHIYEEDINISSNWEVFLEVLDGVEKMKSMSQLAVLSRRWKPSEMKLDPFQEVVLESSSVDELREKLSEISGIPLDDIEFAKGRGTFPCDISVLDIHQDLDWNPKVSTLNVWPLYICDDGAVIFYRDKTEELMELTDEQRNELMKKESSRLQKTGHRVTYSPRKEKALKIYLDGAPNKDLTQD

[5] = target: DUBs and other proteins in HEK293 cells (Homo sapiens, UniProt P51784); settings: replicates A-C; for Log2 reporter intensity values: USP11: DMSO substract (FC); for Log2 reporter intensity values: USP11, DMSO subtracted
Chain of DUBs and other proteins in HEK293 cells (Homo sapiens, UniProt P51784) (P51784 whole entry): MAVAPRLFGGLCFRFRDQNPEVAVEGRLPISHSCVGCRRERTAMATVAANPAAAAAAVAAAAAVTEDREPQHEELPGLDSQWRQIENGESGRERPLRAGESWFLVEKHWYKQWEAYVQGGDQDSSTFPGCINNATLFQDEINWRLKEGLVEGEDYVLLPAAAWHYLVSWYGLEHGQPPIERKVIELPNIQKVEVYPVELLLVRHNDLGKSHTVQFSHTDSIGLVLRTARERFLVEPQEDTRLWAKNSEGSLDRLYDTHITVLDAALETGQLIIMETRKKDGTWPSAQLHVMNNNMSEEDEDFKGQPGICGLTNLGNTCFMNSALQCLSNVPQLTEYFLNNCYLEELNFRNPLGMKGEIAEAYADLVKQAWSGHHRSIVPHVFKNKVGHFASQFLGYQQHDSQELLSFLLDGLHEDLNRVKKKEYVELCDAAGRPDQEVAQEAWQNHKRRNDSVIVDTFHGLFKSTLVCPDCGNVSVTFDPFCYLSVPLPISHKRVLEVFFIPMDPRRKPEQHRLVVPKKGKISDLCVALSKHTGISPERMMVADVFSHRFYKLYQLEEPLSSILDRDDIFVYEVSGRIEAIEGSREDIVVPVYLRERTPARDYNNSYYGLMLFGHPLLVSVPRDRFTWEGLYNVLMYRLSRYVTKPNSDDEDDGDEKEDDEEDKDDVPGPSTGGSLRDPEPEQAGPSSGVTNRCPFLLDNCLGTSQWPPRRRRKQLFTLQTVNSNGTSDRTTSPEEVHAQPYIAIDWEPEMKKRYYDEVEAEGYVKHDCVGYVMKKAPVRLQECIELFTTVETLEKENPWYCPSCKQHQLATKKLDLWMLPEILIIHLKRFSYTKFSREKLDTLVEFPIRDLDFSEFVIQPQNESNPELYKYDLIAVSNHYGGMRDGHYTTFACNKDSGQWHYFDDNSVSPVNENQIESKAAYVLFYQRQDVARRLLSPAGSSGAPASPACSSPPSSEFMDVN

[6] = target: DUBs and other proteins in HEK293 cells (Homo sapiens, UniProt Q9UPU5); settings: replicates A-C; for Log2 reporter intensity values: USP24: DMSO substract (FC); for Log2 reporter intensity values: USP24, DMSO subtracted
Chain of DUBs and other proteins in HEK293 cells (Homo sapiens, UniProt Q9UPU5) (Q9UPU5 whole entry): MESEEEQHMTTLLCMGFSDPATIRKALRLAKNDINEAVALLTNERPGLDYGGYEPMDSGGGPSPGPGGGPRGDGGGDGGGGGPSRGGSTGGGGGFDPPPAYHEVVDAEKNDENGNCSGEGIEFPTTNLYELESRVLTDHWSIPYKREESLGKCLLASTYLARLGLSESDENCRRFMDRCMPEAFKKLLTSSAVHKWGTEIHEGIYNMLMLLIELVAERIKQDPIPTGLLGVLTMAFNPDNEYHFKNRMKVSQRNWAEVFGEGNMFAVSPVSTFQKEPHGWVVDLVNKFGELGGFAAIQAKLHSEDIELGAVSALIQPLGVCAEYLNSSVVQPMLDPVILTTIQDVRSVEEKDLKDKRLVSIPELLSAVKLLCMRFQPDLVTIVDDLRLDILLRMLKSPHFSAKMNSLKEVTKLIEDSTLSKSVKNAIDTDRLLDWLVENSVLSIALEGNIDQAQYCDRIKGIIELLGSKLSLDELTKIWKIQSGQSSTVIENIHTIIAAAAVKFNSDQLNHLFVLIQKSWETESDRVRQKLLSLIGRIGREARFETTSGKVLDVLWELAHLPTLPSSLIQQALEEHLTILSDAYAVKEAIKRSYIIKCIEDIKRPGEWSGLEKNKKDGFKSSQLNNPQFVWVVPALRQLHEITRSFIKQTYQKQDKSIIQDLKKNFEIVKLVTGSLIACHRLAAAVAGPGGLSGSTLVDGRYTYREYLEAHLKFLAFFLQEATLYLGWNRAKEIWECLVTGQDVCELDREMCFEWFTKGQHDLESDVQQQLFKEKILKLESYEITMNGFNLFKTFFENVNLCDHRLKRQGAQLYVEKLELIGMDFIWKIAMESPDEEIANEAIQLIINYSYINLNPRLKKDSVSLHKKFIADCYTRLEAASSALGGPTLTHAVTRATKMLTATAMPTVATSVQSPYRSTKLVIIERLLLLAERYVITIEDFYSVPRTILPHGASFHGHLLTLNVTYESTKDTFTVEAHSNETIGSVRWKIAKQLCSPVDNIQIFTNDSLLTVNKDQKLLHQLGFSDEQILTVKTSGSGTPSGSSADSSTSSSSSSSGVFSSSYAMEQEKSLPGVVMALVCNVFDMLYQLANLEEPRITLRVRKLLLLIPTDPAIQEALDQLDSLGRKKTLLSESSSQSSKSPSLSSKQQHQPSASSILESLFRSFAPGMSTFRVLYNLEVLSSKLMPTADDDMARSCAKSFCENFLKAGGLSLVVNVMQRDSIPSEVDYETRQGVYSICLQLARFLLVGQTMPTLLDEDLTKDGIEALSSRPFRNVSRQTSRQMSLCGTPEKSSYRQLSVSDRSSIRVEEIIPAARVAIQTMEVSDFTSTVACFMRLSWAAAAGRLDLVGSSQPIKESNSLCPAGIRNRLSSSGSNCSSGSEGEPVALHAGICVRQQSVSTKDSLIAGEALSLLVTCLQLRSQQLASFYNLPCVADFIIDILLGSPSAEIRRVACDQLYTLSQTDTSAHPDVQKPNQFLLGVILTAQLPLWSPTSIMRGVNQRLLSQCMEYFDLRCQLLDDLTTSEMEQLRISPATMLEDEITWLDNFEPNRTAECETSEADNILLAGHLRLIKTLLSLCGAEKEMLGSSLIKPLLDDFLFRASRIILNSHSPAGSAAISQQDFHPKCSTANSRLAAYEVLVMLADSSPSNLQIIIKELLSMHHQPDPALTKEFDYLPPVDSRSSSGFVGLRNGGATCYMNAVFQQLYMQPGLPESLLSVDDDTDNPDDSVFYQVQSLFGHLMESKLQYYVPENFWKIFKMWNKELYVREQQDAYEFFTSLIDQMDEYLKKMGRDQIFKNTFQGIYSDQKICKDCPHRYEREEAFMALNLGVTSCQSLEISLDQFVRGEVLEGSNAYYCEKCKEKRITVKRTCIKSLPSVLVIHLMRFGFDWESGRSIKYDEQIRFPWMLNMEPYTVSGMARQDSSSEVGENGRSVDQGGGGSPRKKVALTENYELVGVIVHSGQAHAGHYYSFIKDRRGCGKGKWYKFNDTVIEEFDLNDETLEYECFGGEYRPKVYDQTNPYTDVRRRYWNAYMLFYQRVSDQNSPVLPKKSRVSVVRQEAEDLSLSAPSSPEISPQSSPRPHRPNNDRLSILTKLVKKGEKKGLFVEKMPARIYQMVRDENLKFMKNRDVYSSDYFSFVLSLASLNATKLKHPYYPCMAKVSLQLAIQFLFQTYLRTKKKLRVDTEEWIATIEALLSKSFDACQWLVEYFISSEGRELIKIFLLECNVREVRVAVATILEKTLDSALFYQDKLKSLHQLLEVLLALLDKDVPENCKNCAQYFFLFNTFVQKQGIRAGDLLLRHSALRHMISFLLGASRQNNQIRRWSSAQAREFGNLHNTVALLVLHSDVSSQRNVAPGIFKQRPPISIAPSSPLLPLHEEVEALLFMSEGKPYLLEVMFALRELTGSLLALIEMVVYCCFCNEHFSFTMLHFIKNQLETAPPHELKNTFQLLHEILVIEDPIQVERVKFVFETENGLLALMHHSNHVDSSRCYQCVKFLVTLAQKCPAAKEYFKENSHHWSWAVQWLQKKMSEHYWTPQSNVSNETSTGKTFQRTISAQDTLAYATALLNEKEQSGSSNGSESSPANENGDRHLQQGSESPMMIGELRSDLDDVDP

[7] = 1 μM 1 (60 min) + 20 nM ABP 2 (10 min), All values
[8] = 1 μM 1 (60 min) + 20 nM ABP 2 (10 min), DMSO subtracted
[9] = 4 μM 1 (60 min) + 20 nM ABP 2 (10 min), All values
[10] = 4 μM 1 (60 min) + 20 nM ABP 2 (10 min), DMSO subtracted
[11] = 1 at 1 μM, competition with ABP 2
[12] = 1 at 4 μM, competition with ABP 2
[13] = 20 nM ABP 2 (10 min), no competitor, All values
[14] = 20 nM ABP 2 (10 min), no competitor, DMSO subtracted

Log2 reporter intensity values, COPS5 [1, 7]: -0.01371 and -0.03292 and 0.07504
Log2 reporter intensity values, COPS5 [1, 8]: 0.04441 and 0.02519 and 0.1332
Log2 reporter intensity values, COPS5 [1, 9]: 0.02465 and -0.01344 and 0.1212
Log2 reporter intensity values, COPS5 [1, 10]: 0.08277 and 0.04467 and 0.1793
Log2 reporter intensity values: COPS5 [1, 11]: 1.031 and 1.018 and 1.097
Log2 reporter intensity values: COPS5 [1, 12]: 1.059 and 1.031 and 1.132
Log2 t-test Difference ([1]; 1 - 1 μM): -0.09474
Log2 t-test Difference ([1]; 1 - 4 μM): -0.06006
Log2 reporter intensity values ([1]; 1_1 μM, DMSO subtracted): 0.03118 and 0.01753 and 0.09661
Log2 reporter intensity values ([1]; 1_4 μM, DMSO subtracted): 0.05896 and 0.03137 and 0.1323
Log2 reporter intensity values ([1]; 1 at 1 μM, DMSO subtracted): 0.04441 and 0.02519 and 0.1332
Log2 reporter intensity values ([1]; 1 at 4 μM, DMSO subtracted): 0.08277 and 0.04467 and 0.1793
Log2 reporter intensity values, COPS6 [2, 7]: -0.0741 and -0.01578 and 0.003018
Log2 reporter intensity values, COPS6 [2, 8]: -0.08651 and -0.02819 and -0.009395
Log2 reporter intensity values, COPS6 [2, 9]: 0.02899 and -0.02559 and 0.0005347
Log2 reporter intensity values, COPS6 [2, 10]: 0.01657 and -0.038 and -0.01188
Log2 reporter intensity values: COPS6 [2, 11]: 0.9418 and 0.9806 and 0.9935
Log2 reporter intensity values: COPS6 [2, 12]: 1.012 and 0.974 and 0.9918
Log2 t-test Difference ([2]; 1 - 1 μM): -0.08501
Log2 t-test Difference ([2]; 1 - 4 μM): -0.05474
Log2 reporter intensity values ([2]; 1_1 μM, DMSO subtracted): -0.05832 and -0.01946 and -0.006603
Log2 reporter intensity values ([2]; 1_4 μM, DMSO subtracted): 0.01144 and -0.02611 and -0.008312
Log2 reporter intensity values ([2]; 1 at 1 μM, DMSO subtracted): -0.08651 and -0.02819 and -0.009395
Log2 reporter intensity values ([2]; 1 at 4 μM, DMSO subtracted): 0.01657 and -0.038 and -0.01188
Log2 reporter intensity values: UCHL5 ([3]; 1 at 1 μM): 1.121 and 1.059 and 1.084
Log2 reporter intensity values: UCHL5 ([3]; 1 at 4 μM): 1.068 (2×) and 1.07
Log2 reporter intensity values ([3]; 1_1 μM): 0.1208 and 0.05828 and 0.08364
Log2 reporter intensity values ([3]; 1_4 μM): 0.06718 and 0.06755 and 0.06936
Log2 reporter intensity values ([3]; 1 at 1 μM): 0.1653 and 0.08265 and 0.1168
Log2 reporter intensity values ([3]; 1 at 4 μM): 0.09472 and 0.09521 and 0.09766
Log2 reporter intensity values: USP47 [4, 11]: 0.973 and 1.08 and 1.022
Log2 reporter intensity values: USP47 [4, 12]: 1.072 and 1.012 and 0.9583
Log2 reporter intensity values ([4]; 1_1 μM): -0.02716 and 0.07955 and 0.02151
Log2 reporter intensity values ([4]; 1_4 μM): 0.07173 and 0.01208 and -0.04184
Log2 reporter intensity values ([4]; 1 at 1 μM): -0.03956 and 0.1106 and 0.03085
Log2 reporter intensity values ([4]; 1 at 4 μM): 0.1001 and 0.01747 and -0.0615
Log2 reporter intensity values: USP11 [5, 11]: 1.082 and 1.001 and 1.048
Log2 reporter intensity values: USP11 [5, 12]: 1.053 and 0.9981 and 1.068
Log2 reporter intensity values ([5]; 1_1 μM): 0.08158 and 0.0009743 and 0.04766
Log2 reporter intensity values ([5]; 1_4 μM): 0.05297 and -0.002249 and 0.06752
Log2 reporter intensity values ([5]; 1 at 1 μM): 0.1136 and 0.00189 and 0.06764
Log2 reporter intensity values ([5]; 1 at 4 μM): 0.07493 and -0.002761 and 0.09472
Log2 reporter intensity values: USP24 [6, 11]: 1.001 and 1.09 and 1.248
Log2 reporter intensity values: USP24 [6, 12]: 0.9741 and 0.9874 and 0.9877
Log2 reporter intensity values ([6]; 1_1 μM): -0.002058 and 0.08693 and 0.2444
Log2 reporter intensity values ([6]; 1_4 μM): -0.02929 and -0.01601 and -0.01571
Log2 reporter intensity values ([6]; 1 at 1 μM): 0.00188 and 0.1247 and 0.3193
Log2 reporter intensity values ([6]; 1 at 4 μM): -0.0379 and -0.01836 and -0.01793
SMILES: N#CN1CCC[C@H]1C(=O)N1CCc2c(-c3c[nH]c4ncccc34)cccc21 [Compound 1]

Log2 reporter intensity values, COPS5 [1, 13]: 0.09368 and -0.02632 and 0.2453
Log2 reporter intensity values, COPS5 [1, 14]: 0.1518 and 0.03179 and 0.3034
Log2 reporter intensity values: COPS5 ([1]; 20 nM ABP 2 alone): 1.111 and 1.022 and 1.234
Log2 t-test Difference ([1]; ABP 2 - 20 nM): 0.1623
Log2 reporter intensity values, COPS6 [2, 13]: 0.06809 and 0.08942 and 0.01065
Log2 reporter intensity values, COPS6 [2, 14]: 0.05567 and 0.07701 and -0.001766
Log2 reporter intensity values: COPS6 ([2]; 20 nM ABP 2 alone): 1.039 and 1.055 and 0.9988
Log2 t-test Difference ([2]; ABP 2 - 20 nM): 0.04364
Log2 reporter intensity values: USP47 ([4]; 20 nM ABP 2 alone): 0.9076 and 0.9784 and 0.8828
Log2 reporter intensity values: USP11 ([5]; 20 nM ABP 2 alone): 0.9204 and 1.006 and 0.9863
Log2 reporter intensity values: USP24 ([6]; 20 nM ABP 2 alone): 1.118 and 1.126 and 1.127
SMILES: C#Cc1cnc2[nH]cc(-c3cccc4c3CCN4C(=O)[C@@H]3CCCN3C#N)c2c1 [Compound 2]
Log2 reporter intensity values ([1]; 20 nM ABP 2, DMSO subtracted): 0.1518 and 0.03179 and 0.3034 and 0.1109 and 0.0222 and 0.2339
Log2 reporter intensity values ([2]; 20 nM ABP 2, DMSO subtracted): 0.05567 and 0.07701 and -0.001766 and 0.03923 and 0.05472 and -0.001335
Log2 reporter intensity values ([4]; 20 nM ABP 2): -0.1398 and -0.03153 and -0.1799 and -0.09247 and -0.02173 and -0.1173
Log2 reporter intensity values ([5]; 20 nM ABP 2): -0.1196 and 0.008385 and -0.01996 and -0.07989 and 0.005492 and -0.01408
Log2 reporter intensity values ([6]; 20 nM ABP 2): 0.1605 and 0.1713 and 0.1729 and 0.1143 and 0.1227 and 0.1239
